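All cell lines were grown in 96-well plates and treated with compound for 48 hours. GI50 is the concentration that inhibits growth by half.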 Calls of active or inactive are those of the source. No stated cut-off is given here; in the data, active = GI50 up to about 1.1 µM and inactive = higher.
Experiments:
Experiment in all cases: NCI tumour cell line growth inhibition, 48 h
A549 = tested on: A549
ACHN = tested on: ACHN
HL-60 = tested on: HL-60
IGROV-1 = tested on: IGROV-1
K562 = tested on: K562
LOX IMVI = tested on: LOX IMVI
MDA-MB-435 = tested on: MDA-MB-435
Malme-3M = tested on: Malme-3M
NCI-H226 = tested on: NCI-H226
NCI-H522 = tested on: NCI-H522
RPMI-8226 = tested on: RPMI-8226
SF-539 = tested on: SF-539
SK-MEL-28 = tested on: SK-MEL-28
SK-MEL-5 = tested on: SK-MEL-5
SNB-19 = tested on: SNB-19
U-251 = tested on: U-251
UO-31 = tested on: UO-31
SK-MEL-2 = tested on: SK-MEL-2
CAKI-1 = tested on: CAKI-1
A498 = tested on: A498

Measured: GI50

Cc1c2c(nc3ccccc13)C(=O)c1cccnc1C2=O
active: SK-MEL-5 0.381 µM
inactive: A549 1.66 µM | ACHN 10.6 µM | HL-60 15.1 µM | IGROV-1 17.8 µM | K562 20 µM | LOX IMVI 10.7 µM | MDA-MB-435 1.79 µM | Malme-3M 1.29 µM | NCI-H226 18.9 µM | NCI-H522 6.87 µM | RPMI-8226 17 µM | SF-539 5.41 µM | SK-MEL-28 11.5 µM | SNB-19 16.3 µM | U-251 10.8 µM | UO-31 15.2 µM

COC(=O)/C(=C\Nc1cccc(C)n1)S(=O)(=O)c1ccc(C)cc1
inactive: A549 60 µM | ACHN > 100 µM | HL-60 20.7 µM | IGROV-1 > 100 µM | K562 21.1 µM | LOX IMVI 79.4 µM | MDA-MB-435 39 µM | Malme-3M > 100 µM | NCI-H226 36.5 µM | NCI-H522 66.4 µM | RPMI-8226 > 100 µM | SF-539 52.4 µM | SK-MEL-28 67 µM | SK-MEL-2 33.4 µM | SK-MEL-5 36.8 µM | SNB-19 39.2 µM | U-251 73.3 µM | UO-31 36.4 µM

COc1ccc(C(O)(c2ccccc2)c2nccc3ccccc23)cc1 (stereo not given)
inactive: A549 7.19 µM | ACHN 12.3 µM | CAKI-1 8 µM | HL-60 2.32 µM | IGROV-1 9.86 µM | K562 2.7 µM | LOX IMVI 5.18 µM | MDA-MB-435 3.6 µM | NCI-H522 6.35 µM | RPMI-8226 7.36 µM | SK-MEL-28 41.4 µM | SK-MEL-5 3.38 µM | SNB-19 11.9 µM | U-251 11.7 µM | UO-31 21 µM
active: Malme-3M 0.0966 µM

C=CCC1(CN(C)C)CC/C(=C\c2cc(OC)c(OC)c(OC)c2)C1=O (stereo not given)
inactive: A498 29.4 µM | A549 40.2 µM | ACHN 25.8 µM | CAKI-1 19.4 µM | HL-60 6.81 µM | IGROV-1 29.4 µM | K562 20.4 µM | LOX IMVI 23.2 µM | Malme-3M 33.1 µM | NCI-H226 52.4 µM | NCI-H522 15.1 µM | RPMI-8226 24.5 µM | SF-539 18.7 µM | SK-MEL-28 34.2 µM | SK-MEL-2 42.8 µM | SK-MEL-5 20 µM | SNB-19 34 µM | U-251 23 µM | UO-31 26.5 µM

N#CC(Cc1ccccc1)N(CCC1=CCCCC1)C(c1ccccc1)c1ccccc1 (stereo not given)
inactive: A498 > 100 µM | A549 70.3 µM | ACHN > 100 µM | CAKI-1 > 100 µM | IGROV-1 > 100 µM | K562 80.4 µM | MDA-MB-435 41.1 µM | Malme-3M > 100 µM | NCI-H522 15.2 µM | RPMI-8226 33.3 µM | SK-MEL-28 77.3 µM | SK-MEL-2 > 100 µM | SK-MEL-5 28 µM | SNB-19 > 100 µM | U-251 69.5 µM | UO-31 50.6 µM

O=C(O)CCC(=O)OC1N=C(c2ccccc2Cl)c2cc([N+](=O)[O-])ccc2NC1=O (stereo not given)
inactive: A498 > 100 µM | A549 > 100 µM | ACHN 57.8 µM | CAKI-1 > 100 µM | HL-60 38.5 µM | IGROV-1 95.9 µM | LOX IMVI 85.7 µM | MDA-MB-435 > 100 µM | Malme-3M > 100 µM | NCI-H522 55.1 µM | SK-MEL-28 60.1 µM | SK-MEL-2 > 100 µM | SNB-19 > 100 µM | U-251 31.5 µM | UO-31 44.6 µM

CC(=O)OC12OC(C)(C3C(=O)N(c4ccccc4)C(=O)C31)N(c1ccccc1)C2=O (stereo not given)
inactive: A549 > 100 µM | ACHN > 100 µM | CAKI-1 > 100 µM | HL-60 > 100 µM | IGROV-1 > 100 µM | K562 > 100 µM | LOX IMVI > 100 µM | MDA-MB-435 > 100 µM | Malme-3M > 100 µM | NCI-H226 > 100 µM | NCI-H522 > 100 µM | SF-539 > 100 µM | SK-MEL-28 > 100 µM | SK-MEL-2 > 100 µM | SK-MEL-5 > 100 µM | SNB-19 > 100 µM | U-251 > 100 µM | UO-31 > 100 µM

COc1c(C(=O)NCCN(CCNC(=O)c2cccc(-c3cccc(C(=O)N(C)C)c3OC)c2OC)CCNC(=O)c2cccc(-c3cccc(C(=O)N(C)C)c3OC)c2OC)cccc1-c1cccc(C(=O)N(C)C)c1OC
inactive: A549 > 100 µM | ACHN > 100 µM | CAKI-1 > 100 µM | HL-60 39.4 µM | IGROV-1 36.1 µM | K562 23.8 µM | LOX IMVI 18.1 µM | MDA-MB-435 20.9 µM | Malme-3M 18.7 µM | NCI-H226 17.8 µM | NCI-H522 21.6 µM | RPMI-8226 25.9 µM | SF-539 18.1 µM | SK-MEL-28 19.5 µM | SK-MEL-5 30.5 µM | SNB-19 56.5 µM | U-251 34 µM | UO-31 > 100 µM

CCCCCCCCCCC[N+]1(Cc2ccccc2)CC2CCN(Cc3ccccc3)CC2C1 (stereo not given)
active: HL-60 0.106 µM | IGROV-1 0.429 µM | K562 0.125 µM | LOX IMVI 0.382 µM | Malme-3M 0.342 µM | NCI-H226 0.67 µM | NCI-H522 0.106 µM | RPMI-8226 0.101 µM | SK-MEL-28 0.665 µM | SK-MEL-2 0.261 µM | SK-MEL-5 0.173 µM | SNB-19 0.371 µM | U-251 0.261 µM
inactive: A498 1.5 µM | A549 1.2 µM | ACHN 1.17 µM | CAKI-1 1.4 µM | SF-539 1.15 µM | UO-31 1.3 µM

N#CC(C#N)=Cc1ccc(CP(=O)(O)O)cc1
inactive: A498 > 100 µM | A549 > 100 µM | ACHN > 100 µM | CAKI-1 > 100 µM | HL-60 70.6 µM | IGROV-1 > 100 µM | K562 > 100 µM | LOX IMVI > 100 µM | Malme-3M > 100 µM | NCI-H226 > 100 µM | NCI-H522 59.6 µM | RPMI-8226 > 100 µM | SF-539 > 100 µM | SK-MEL-28 > 100 µM | SK-MEL-2 > 100 µM | SK-MEL-5 > 100 µM | SNB-19 > 100 µM | U-251 > 100 µM | UO-31 > 100 µM

O=CN/C=C\c1cc(O)ccc1O
inactive: A498 74.8 µM | A549 > 100 µM | ACHN 15 µM | CAKI-1 12.7 µM | HL-60 10.4 µM | IGROV-1 > 40.1 µM | K562 13.3 µM | LOX IMVI 7.23 µM | Malme-3M 13.8 µM | NCI-H226 14.5 µM | NCI-H522 4.99 µM | RPMI-8226 13.6 µM | SF-539 10.7 µM | SK-MEL-28 42.2 µM | SK-MEL-2 > 48.9 µM | SK-MEL-5 7.59 µM | SNB-19 > 100 µM | U-251 32 µM | UO-31 13.8 µM

O=C/C(=C(/Cl)c1ccc(O)cc1)c1ccccc1
inactive: A498 50.5 µM | A549 32.1 µM | ACHN 20.9 µM | CAKI-1 27.4 µM | HL-60 38.5 µM | IGROV-1 26 µM | K562 45.3 µM | LOX IMVI 21.6 µM | Malme-3M 23.7 µM | NCI-H226 > 100 µM | NCI-H522 13.3 µM | RPMI-8226 17.2 µM | SF-539 28.6 µM | SK-MEL-28 20.7 µM | SK-MEL-2 32.7 µM | SK-MEL-5 23 µM | SNB-19 41.2 µM | U-251 24 µM | UO-31 21 µM

COc1ccc(-c2nc3ccccc3s2)cc1OC
inactive: A549 51.6 µM | ACHN 40.4 µM | HL-60 > 100 µM | K562 > 100 µM | LOX IMVI 27.1 µM | MDA-MB-435 > 100 µM | RPMI-8226 22.7 µM | SF-539 54.6 µM | SK-MEL-28 > 100 µM | SK-MEL-2 > 100 µM | SK-MEL-5 10.5 µM | SNB-19 4.75 µM | U-251 53.8 µM | UO-31 41.7 µM

CC1[C@@]2(CCC(C)(C)O2)O[C@@H]2C=C3C4CCC5Cc6nc7c(nc6C[C@@]5(C)C4C[C@H](O)[C@@]3(C)[C@]12O)CC1CCC2C3=C[C@H]4O[C@@]5(O[C@@](C)(CO)C[C@@H]5O)C(C)[C@@]4(O)[C@]3(C)[C@@H](O)CC2[C@]1(C)C7 (stereo not given in full)
active: A498 0.0313 µM | A549 0.0953 µM | ACHN 0.103 µM | CAKI-1 0.111 µM | HL-60 0.0307 µM | IGROV-1 0.248 µM | K562 0.055 µM | LOX IMVI 0.0526 µM | Malme-3M 0.175 µM | NCI-H226 0.0428 µM | NCI-H522 0.00902 µM | RPMI-8226 0.00653 µM | SF-539 0.00847 µM | SK-MEL-28 0.0553 µM | SK-MEL-2 0.0783 µM | SK-MEL-5 0.0951 µM | SNB-19 0.224 µM | U-251 0.0266 µM | UO-31 0.047 µM

CC(C)C1=Cc2ccc3c(c2C(=O)C1=O)CCCC3(C)C [MILTIRONE]
inactive: A498 17.4 µM | A549 18.3 µM | ACHN 5.82 µM | CAKI-1 2.47 µM | HL-60 2.37 µM | IGROV-1 5.93 µM | K562 2.67 µM | LOX IMVI 12.2 µM | Malme-3M 4.74 µM | NCI-H226 20.5 µM | NCI-H522 1.79 µM | RPMI-8226 2.12 µM | SF-539 5.33 µM | SK-MEL-28 5.62 µM | SK-MEL-2 17 µM | SK-MEL-5 12.3 µM | SNB-19 17.2 µM | U-251 14.2 µM | UO-31 6.64 µM
